Source: patent US11166942B2 (PRAXIS BIOTECH LLC, priority 2018, dated 2021)

Legend:
[1] = test system: CT26 tumor-bearing Balb/c mice, gastrocnemius; assay: Cachexia-induced muscle atrophy; assay type: in vivo, mouse; settings: 10 mg/kg daily oral gavage for 12 days
Experimental: Wild type six-weeks-old male Balb/c mice obtained from the vivarium Fundación Ciencia & Vida Chile (Santiago, Chile) were used. Mice were housed in independent plastic cages in a room maintained at 25° C. with a 12-h:12-h light:dark cycle.
1×10^6 CT26 colon carcinoma cell line (ATCC #CRL-2638, ATCC Manassas, Va.) were injected subcutaneously in the right lower flank of each animal for induction of cachexia-induced muscle atrophy as described (Nat Commun. 2012 Jun. 12; 3:896). Non-injected animals were used as controls. At day 7 post tumor-cell injection, animals were randomized into two groups and treated with 10 mg/kg of test compound formulated in 50% Polyethylene glycol (PEG-400) in distilled water, or with vehicle (50% PEG-400 in distilled water) by daily oral gavage for 12 days.
After 12 treatments, animals were sacrificed and gastrocnemius were removed from both hindlimbs. Muscles derived from non-tumor-bearing mice were used as control.
Upon collection, muscles were immediately frozen in liquid nitrogen and then stored at −80° C. The frozen muscles were then homogenized with a T 10 basic ULTRA-TURRAX (IKa) in ice-cold buffer lysis (Cell Signaling 9803) and protease and phosphatase inhibitors (Roche). Lysates were sonicated for 3 min and centrifuged at 13,000 rpm for 20 minutes at 4° C. Protein concentration in supernatants was determined using BCA Protein Assay Kit (Pierce). Equal amount of protein was loaded on SDS-PAGE gels. […]
ATF4 (Abcam), Atrogin-1 (ECM Biosciences), MuRF-1 (Santa Cruz Biotechnology) and β-actin (Sigma-Aldrich) antibodies were used as primary antibodies. […] Quantification of protein bands was done by densitometry using ImageJ software.
Expression of ATF4 and the muscle atrophy markers, Atrogin-1 and MuRF-1, of gastrocnemius derived from control and CT26 tumor-bearing mice treated with vehicle or compound 58 are shown in FIG. 10A. […] The levels were normalized to β-actin expression and percentage was calculated as the percent relative to the expression of non-tumor-bearing mice (Control) which corresponds to 100%. […]

[2] = test system: Balb/c mice with immobilized hind limb, gastrocnemius; assay: Immobilization-induced muscle atrophy; assay type: in vivo, mouse; settings: 10 mg/kg oral
Experimental: Wild type eight-weeks-old male Balb/c mice obtained from the vivarium Fundación Ciencia & Vida Chile (Santiago, Chile) were used. Mice were housed in independent plastic cages, fed ad libitum in a room maintained at 25° C. with a 12-h:12-h light:dark cycle.
Twenty-four hours before and during the 3 days of immobilization procedures, animals receive oral administration via feeding tubes (15 gauge) of vehicle (50% Polyethylene glycol 400 (Sigma-Aldrich P3265) in distilled water or 10 mg/kg of test compound formulated in vehicle.
One hindlimb is immobilized with a plastic stick placed over and under the limb and fixed with a medical adhesive bandage. Animals were daily monitored. The immobilization procedure prevents movement of the immobilized leg alone. After 3 days, the animals were sacrificed and gastrocnemius muscle is removed from both hindlimbs, the contralateral, non-immobilized leg being used as an internal control.
For in vivo measurements of protein synthesis, puromycin (Sigma-Aldrich, P8833) is prepared at 0.04 μmol/g body weight in a volume of 200 μl of PBS, and subsequently administered into the animals via intraperitoneal injection, 30 min prior to muscle collection.
Upon collection, muscles were immediately frozen in liquid nitrogen and stored at −80° C. […] Protein concentration in supernatants is determined using BCA Protein Assay Kit (Pierce). […]
Puromycin (12D10) (Merck Millipore), ATF4 (Abcam), Atrogin-1 (ECM Biosciences), MuRF-1 (Santa Cruz Biotechnology) and β-actin (Sigma-Aldrich) antibodies were used as primary antibodies. […] Quantification of protein bands is done by densitometry using ImageJ software.
Expression of ATF4 and the muscle atrophy markers, Atrogin-1 and MuRF-1, of gastrocnemius derived from mobilized and immobilized hind limbs of mice treated with vehicle or compound 58 are shown in FIG. 9C. […] The levels were normalized to β-actin expression and percentage is calculated as the percent relative to the expression of mobile hind limb from control mice (Vehicle) which corresponds to 100%. […]

O=C(NN1CCN(C[C@@H](O)COc2ccc(Cl)c(F)c2)CC1)c1ccc2cc(Cl)ccc2n1 [Compound 58, (R)-6-chloro-N-(4-(3-(4-chloro-3-fluorophenoxy)-2-hydroxypropyl)piperazin-1-yl)quinoline-2-carboxamide]
reduction: ATF4 expression in gastrocnemius ([1]; vs vehicle (FIG. 10B)) | Atrogin-1 expression in gastrocnemius ([1]; vs vehicle (FIG. 10C)) | MuRF-1 expression in gastrocnemius ([1]; vs vehicle (FIG. 10D)) | ATF4 expression in gastrocnemius ([2]; vs vehicle (FIG. 9D)) | Atrogin-1 expression in gastrocnemius ([2]; vs vehicle (FIG. 9E)) | MuRF-1 expression in gastrocnemius ([2]; vs vehicle (FIG. 9F))
